Publication PMC10442743 (Dalton Transactions (Cambridge, England : 2003), 2023)
Read-outs that look alike come from different tables or passages of the source.

Experiments:
[1] = test system: MCF-7; experiment: MTT cytotoxicity assay, MCF-7 cells; type: cell-based, human
Experimental: (§1) The cytotoxicity of 1–11CA was assessed against human breast cancer MCF-7 and MDA-MB-231 cells, and non-tumorigenic adherent mouse fibroblast connective tissue L929 cells using the MTT assay after 24 and 72 h (Tables S5 ^† and Table 1, respectively).
(§2) Then, necessary dilutions were made using the supplement DMEM, to prepare the range of tested concentrations. Since DMSO was used to solubilize the compounds, a supplemented DMEM + DMSO (at the same percentage as in the sequential dilutions) was considered as a control in the 3-[4,5-dimetylthiazole-2-yl]-2,5-diphenyltetrazolium bromide (MTT) assay.
(§3) L929, MCF-7, and MDA-MB-231 cell lines were cultured in DMEM supplemented with 10% (v/v) FBS and 1% (v/v) of penicillin–streptomycin. The cells were incubated in a humidified chamber at 37 °C under saturated air with a 5% CO2 atmosphere. Cells were passed at 80%–90% of confluency with 0.25% (w/v) trypsin and the cell culture media was changed every 2–3 days.
(§4) The compounds were tested on two breast cancer cell lines (MCF-7 and MDA-MB-231) and L929 fibroblasts, used as a reference for the safety evaluation according to ISO 10993-1:2009 “Biological evaluation of medical devices”. Cells were seeded on sterile 96-well plates at 50 000 cells per well (L929) and 20 000 cells per well (MCF-7 and MDA-MB-231) in supplemented DMEM medium (100 μL) for 24 h. The culture medium was removed and new media containing different concentrations of the compounds (0–1000 μM) was added to the wells (100 μL). Control cells were incubated under the same conditions in the absence of a compound. Cells were incubated for 24 and 72 h under the same conditions described above. Then, the medium was removed, and the cells were incubated with 3-(4,5-dimethylthiazol-2-yl)-2,5-diphenyltetrazolium bromide (MTT; 0.5 mg mL^−1) for 3 h. After this time, the medium was removed, and formazan crystals were solubilized with DMSO (100 μL per well). The absorbance in each well was read on a SynergyTM HT Multimode microplate reader (BioTek Instruments; Winooski, VT, USA) at 570 and 630 nm (for background correction), and the cell viability was calculated according to the following equation (eqn (1)):1 [drawing 3] where OD570(sample) and OD630(sample) are the optical densities of the solutions containing the compounds and OD570(control) and OD630(control) are controls without compound.
(§5) Each apoptosis value determination represents the mean ± standard deviation of 2 independent assays. The IC50 values were obtained using GraphPad Prism software and ANOVA (analysis of variance) was performed to determine the statistical difference between the IC50 values of different cell lines.

[2] = test system: MDA-MB-231; experiment: MTT cytotoxicity assay, MDA-MB-231 cells; type: cell-based, human
Experimental: as §1, §2, §3, §4, §5

[3] = test system: L929; experiment: MTT cytotoxicity assay, L929 fibroblasts (and selectivity index); type: cell-based, mouse; details: for SI (selectivity index): IC50 L929 divided by average IC50 of the breast cancer cell lines
Experimental: as §1, §2, §3, §4, §5

[4] = Solubility in water (ICP-MS); details: 25 °C, limit of detection = 5 ppt
Experimental: sonication, the mixtures were stirred at 25 °C for 1 h. The saturated solutions were filtered
to remove any insoluble solids, dissolved in 0.5 mL of MilliQ water, and analyzed using
ICP-MS. Samples were submitted to acidic digestion with 2 mL of concentrated HNO3
min to heat to 100°C and keep at 100°C for 60 min. After the digestion, the sample
volumes were precisely adjusted to 5 mL with MilliQ water. Samples were further diluted
30 times with 2% HNO3 solution and their Ru content was analyzed by ICP-MS using
standard mode on NexIon 350 D ICP-MS instrument (PerkinElmer). Yttrium was added
as an internal standard at a concentration of 2 ppb to all the solution and Ru quantitation
was performed using an external calibration curve with standards in the 0.05-50 ppb

[5] = n-octanol/water partition coefficient (shake-flask, ICP-MS)
Experimental: The saturated solutions were filtered
(DigiPREP Jr. 15ml, 40 Pos, SCP Science). The digestion program was the following: 15
After the digestion, the sample
Samples were further diluted
range. All measurements were performed in triplicates.
lipophilicity of a compound. This assay was performed following the Shake-flask method
organic and aqueous phase. Aliquots of each phase were taken and analyzed separately
range. The partition coefficient was calculated as P!"=
respectively. All measurements were performed in triplicates.

[6] = Molar conductivity in acetonitrile; type: physicochemical; details: 1 mM in acetonitrile, 25 °C
Experimental: The molar conductivity (ΛM, reported as S·cm2·mol–1) of solutions of 11CA in acetonitrile (1 mM) were measured in a Radiometer Copenhagen CDM92 equipped with a conductivity cell CDC641T glass platinum electrode at room temperature (25 °C). The conductivity of the pure solvent was used as standard controls.
Table S3. Solubility in water at 25 °C, n-octanol/water partition coefficient and molar conductivity of the 11CA. * below limit of detection = 5 ppt.

[7] = test system: ctDNA; experiment: Circular dichroism / induced circular dichroism with calf thymus DNA; details: DNA, 24 h, 37 °C
Experimental: Calf thymus (ct) DNA (Merck®) was used to perform the circular dichroism assay to detect conformational changes in the ctDNA induced by the compounds. CD spectral data was collected on a Chirascan™ V100 (Applied Photophysics) spectropolarimeter equipped with a large area Avalanche photodiodes detector and computer-controlled thermoelectrical cell holder using a 1 cm path length quartz cuvette. CD spectra of ctDNA in the absence and presence of different concentrations of 11Cl were recorded at wavelengths ranging from 320 to 190 nm under constant nitrogen flush at 25 °C. For each CD spectrum, the number of scans was set to 5, and spectral data were collected at 0.1 ms intervals. Additionally, methyl green (MG) and 4′,6-diamidino-2-phenylindole (DAPI), and propidium iodide (PI) were analyzed as minor and major groove binders and as an intercalator, respectively, to help identify the binding mode of 11Cl to DNA. Samples were prepared in 10 mM Tris-HCl buffer (pH 7.6) with 1 mM EDTA. The concentration of ctDNA was fixed at 100 μM (concerning base pairs) and the ctDNA to 11Cl ratio was varied between 0 and 1. The samples were incubated for 24 h at 37 °C and then analyzed in the CD spectropolarimeter.

[8] = 24 h exposure, MTT, read-out: IC50 (µM) (average ± standard deviation) 24 h MCF-7
[9] = 72 h exposure, MTT, read-out: IC50 (μM) (average ± standard deviation) 72 h MCF-7
[10] = 24 h exposure, MTT, read-out: IC50 (µM) (average ± standard deviation) 24 h MDA-MB-231
[11] = 72 h exposure, MTT, read-out: IC50 (μM) (average ± standard deviation) 72 h MDA-MB-231
[12] = 24 h exposure, MTT, read-out: IC50 (µM) (average ± standard deviation) 24 h L929
[13] = 72 h exposure, MTT, read-out: IC50 (μM) (average ± standard deviation) 72 h L929
[14] = sodium counteranion salts, 24 h, read-out: IC50 in MCF-7 cell line Mean ± SD 24 h
[15] = sodium counteranion salts, 72 h, read-out: IC50 in MCF-7 cell line Mean ± SD 72h
[16] = sodium counteranion salts, 24 h, read-out: IC50 in MDA-MB-231 cell line Mean ± SD 24 h
[17] = sodium counteranion salts, 72 h, read-out: IC50 in MDA-MB-231 cell line Mean ± SD 72h
[18] = sodium counteranion salts, 24 h, read-out: IC50 in L929 cell line Mean ± SD 24 h
[19] = sodium counteranion salts, 72 h, read-out: IC50 in L929 cell line Mean ± SD 72h

## Cc1ccc(C(C)C)cc1.[Br][Ru]([Br])[PH]12CN3CN(CN(C3)C1)C2 [Compound 6]
[1]; [8]
  IC50: 376 ± 15 µM
[1]; [9]
  IC50: 74 ± 7 µM
[2]; [10]
  IC50: 388 ± 12 µM
[2]; [11]
  IC50: 63 ± 5 µM
[3]; 24 h
  SI (selectivity index): 1.8
[3]; [12]
  IC50: 670 ± 60 µM
[3]; 72 h
  SI (selectivity index): 1.2
[3]; [13]
  IC50: 82 ± 3 µM

## O=[N+]([O-])[O-].[Na+] [NaNO3, reference compound]
[1]; [14]
  IC50: > 2000 µM
[1]; [15]
  IC50: 262 ± 38 µM
[2]; [16]
  IC50: > 2000 µM
[2]; [17]
  IC50: 334 ± 23 µM
[3]; [18]
  IC50: > 1000 µM
[3]; [19]
  IC50: 331 ± 57 µM

## Cc1ccccc1.[Cl][Ru]([Cl])[PH](c1ccccc1)(c1ccccc1)c1ccccc1 [Compound 9]
[1]; [8]
  IC50: 304 ± 19 µM
[1]; [9]
  IC50: 52 ± 7 µM
[2]; [10]
  IC50: 164 ± 2 µM
[2]; [11]
  IC50: 44 ± 3 µM
[3]; 24 h
  SI (selectivity index): 2.3
[3]; [12]
  IC50: 544 ± 12 µM
[3]; 72 h
  SI (selectivity index): 1.5
[3]; [13]
  IC50: 70 ± 4 µM
[4]
  Solubility (μM): 65 ± 8 µM
  Solubility (μg/mL): 34 ± 4 µg/mL

## Cc1ccc(CCC(=O)O)cc1.O=C1[O][Ru]([PH]23CN4CN(CN(C4)C2)C3)[O]C1=O [Compound 8]
[1]; [8]
  IC50: 213 ± 8 µM
[1]; [9]
  IC50: 41 ± 5 µM
[2]; [10]
  IC50: 284 ± 7 µM
[2]; [11]
  IC50: 50 ± 2 µM
[3]; [12]
  IC50: 572 ± 33 µM
[3]; [13]
  IC50: 50 ± 3 µM

## [Cl-].[Na+] [NaCl, reference compound]
[1]; [14]
  IC50: > 2000 µM
[1]; [15]
  IC50: 280 ± 33 µM
[2]; [16]
  IC50: > 2000 µM
[2]; [17]
  IC50: 398 ± 38 µM
[3]; [18]
  IC50: 782 ± 55 µM
[3]; [19]
  IC50: 274 ± 31 µM

## c1ccc([B-](c2ccccc2)(c2ccccc2)c2ccccc2)cc1 [NaBPh4, reference compound]
[1]; [14]
  IC50: 217 ± 44 µM
[1]; [15]
  IC50: 102 ± 14 µM
[2]; [16]
  IC50: 441 ± 61 µM
[2]; [17]
  IC50: 149 ± 13 µM
[3]; [18]
  IC50: 186 ± 11 µM
[3]; [19]
  IC50: 55 ± 4 µM

## F[B-](F)(F)F.[Na+] [NaBF4, reference compound]
[1]; [14]
  IC50: > 2000 µM
[1]; [15]
  IC50: 343 ± 39 µM
[2]; [16]
  IC50: > 2000 µM
[2]; [17]
  IC50: 347 ± 19 µM
[3]; [18]
  IC50: 923 ± 77 µM
[3]; [19]
  IC50: 386 ± 49 µM

## Cc1cccc[c]1[Ru+]([Cl])([PH](c1ccccc1)(c1ccccc1)c1ccccc1)[PH](c1ccccc1)(c1ccccc1)c1ccccc1.F[B-](F)(F)F [Compound 11BF4]
[1]; [8]
  IC50: 5.4 ± 0.6 µM
[1]; [9]
  IC50: 0.14 ± 0.01 µM
[2]; [10]
  IC50: 4.3 ± 0.4 µM
[2]; [11]
  IC50: 0.19 ± 0.01 µM
[3]; 24 h
  SI (selectivity index): 0.8
[3]; [12]
  IC50: 3.8 ± 0.4 µM
[3]; 72 h
  SI (selectivity index): 6.8
[3]; [13]
  IC50: 1.13 ± 0.05 µM
[5]
  LogPow: 1.60 ± 0.20
[6]
  Conductivity (molar conductivity): 124 S·cm2/mol
[4]
  Solubility (μM): 5 ± 2 µM
  Solubility (μg/mL): 4 ± 1 µg/mL

## O=S(=O)([O-])C(F)(F)F.[Na+] [NaOTf, reference compound]
[1]; [14]
  IC50: > 2000 µM
[1]; [15]
  IC50: 279 ± 30 µM
[2]; [16]
  IC50: > 2000 µM
[2]; [17]
  IC50: 354 ± 27 µM
[3]; [18]
  IC50: > 1000 µM
[3]; [19]
  IC50: 159 ± 20 µM

## CC[N+](C)(CC)CCC[n+]1c(-c2ccccc2)c2cc(N)ccc2c2ccc(N)cc21.[I-].[I-] [PI, propidium iodide]
[7]
  CD band 220 nm (hydrogen bonding), intensity change: Unchanged
  CD band 220 nm (hydrogen bonding), wavelength shift: Blue shift
  CD band 246 nm (helicity), intensity change: Hyperchromic
  CD band 246 nm (helicity), wavelength shift: Unchanged
  CD band 268−280 nm (base-pair stacking interactions), intensity change: Hyperchromic
  CD band 268−280 nm (base-pair stacking interactions), wavelength shift: Unchanged

## F[P-](F)(F)(F)(F)F.[Na+] [NaPF6, reference compound]
[1]; [14]
  IC50: > 2000 µM
[1]; [15]
  IC50: 311 ± 27 µM
[2]; [16]
  IC50: > 1000 µM
[2]; [17]
  IC50: 329 ± 17 µM
[3]; [18]
  IC50: 759 ± 77 µM
[3]; [19]
  IC50: 297 ± 24 µM

## Cc1ccc(C(C)C)cc1.O=C1[O][Ru]([PH]23CN4CN(CN(C4)C2)C3)[O]C1=O [Compound 7]
[1]; [8]
  IC50: 407 ± 17 µM
[1]; [9]
  IC50: 62 ± 4 µM
[2]; [10]
  IC50: 513 ± 16 µM
[2]; [11]
  IC50: 83 ± 5 µM
[3]; [12]
  IC50: 570 ± 18 µM
[3]; [13]
  IC50: 104 ± 4 µM

## C[NH+](C)Cc1ccccc1.[Cl-].[Cl][Ru]([Cl])[PH]12CN3CN(CN(C3)C1)C2 [Compound 3]
[1]; [8]
  IC50: 463 ± 19 µM
[1]; [9]
  IC50: 51 ± 4 µM
[2]; [10]
  IC50: 357 ± 7 µM
[2]; [11]
  IC50: 60 ± 3 µM
[3]; 24 h
  SI (selectivity index): 1.8
[3]; [12]
  IC50: 749 ± 45 µM
[3]; 72 h
  SI (selectivity index): 1.5
[3]; [13]
  IC50: 84 ± 5 µM

## [F][Sb-]([F])([F])([F])([F])[F].[Na+] [NaSbF6, reference compound]
[1]; [14]
  IC50: > 1000 µM
[1]; [15]
  IC50: 234 ± 24 µM
[2]; [16]
  IC50: 689 ± 61 µM
[2]; [17]
  IC50: 236 ± 13 µM
[3]; [18]
  IC50: 693 ± 53 µM
[3]; [19]
  IC50: 180 ± 22 µM

## Cc1c(C)c(C)[c-](C)c1C.[Cl][Ru+]([PH]12CN3CN(CN(C3)C1)C2)[PH]12CN3CN(CN(C3)C1)C2 [Compound 2]
[1]; [8]
  IC50: 403 ± 9 µM
[1]; [9]
  IC50: 51 ± 6 µM
[2]; [10]
  IC50: 286 ± 7 µM
[2]; [11]
  IC50: 63 ± 3 µM
[3]; 24 h
  SI (selectivity index): 1.6
[3]; [12]
  IC50: 537 ± 29 µM
[3]; 72 h
  SI (selectivity index): 1.1
[3]; [13]
  IC50: 64 ± 4 µM
